Source: PMC9457600, “Synthesis, Leishmanicidal, Trypanocidal, Antiproliferative Assay and Apoptotic Induction of (2-Phenoxypyridin-3-yl)naphthalene-1(2H)-one Derivatives” (Molecules, 2022)

What was measured:
[1] = tested on: promastigotes of Leishmania (V.) braziliensis strain MHOM/CO/87/UA301; experiment: MTT viability of L. braziliensis promastigotes; format: cell-based
Procedure: Promastigotes of Leishmania (V.) braziliensis strain MHOM/CO/87/UA301 were isolated from footpad lesions in Balb/C mice previously infected. In the process of maintenance and differentiation of the parasites, the LTI medium (tryptose 15 g/L, yeast extract 5 g/L, liver extract 2 g/L, hemin-NaOH 0.02 g/L, glucose 4 g/L, NaCl 9 g/L, KCl 0.4 g/L Na2HPO4, 7.5 g/L at pH 7.4) supplemented with 10% fetal calf serum and maintained at 29 °C was used.
Briefly, 96-well plates were used, where 2 × 10^6 parasites/mL were seeded. A concentration of 50 μM was used for each compound and an incubation time of 96 h at 29 °C. 3-(4,5-dimethylthiazol-2-yl)-2,5-diphenyl tetrazolium bromide (MTT) 1 μg/mL was added and incubated in darkness for 4 h, acidic isopropanol (4N) was added and the plate was read at 570 nm in a spectrophotometer Synergy HT (Biotek). Miltefosine was used as a reference drug. The EC50 calculation of the selected compound was performed using growth curves. Direct counting was used to monitor the proliferation of parasites, three independent experiments were performed for each concentration of the compounds evaluated. The in vitro evaluations of compounds toxicity by MTT in VERO and BMDM cells follow a methodology described above with some modifications [60].

[2] = tested on: epimastigotes of Trypanosoma cruzi strain MHOM/VE/92/YBM; experiment: MTT viability of T. cruzi epimastigotes; format: cell-based
BMDM macrophages = experiment: MTT cytotoxicity on BMDM macrophages; format: cell-based; settings: Mus musculus, 72 h
Excerpt: T. cruzi epimastigotes MHOM/VE/92/YBM venezuelan strain were used to test the anti T. cruzi in vitro studies. The strain was maintained in a modified LIT medium with 10% fetal bovine serum (FBS). Mouse bone marrow was used to obtain BMDM macrophages. Mouse fibroblast-conditioned medium L-929 was used for the differentiation and maintenance of BMDM macrophages. We evaluated through a colorimetric method the effect of compounds 8–23 on the promastigotes of L. brasiliensis. Briefly, 96-well plates were used, where 2 × 10^6 parasites/mL were seeded. A concentration of 50 μM was used for each compound and an incubation time of 96 h at 29 °C. 3-(4,5-dimethylthiazol-2-yl)-2,5-diphenyl tetrazolium bromide (MTT) 1 μg/mL was added and incubated in darkness for 4 h, acidic isopropanol (4N) was added and the plate was read at 570 nm in a spectrophotometer Synergy HT (Biotek). Miltefosine was used as a reference drug. The EC50 calculation of the selected compound was performed using growth curves. Direct counting was used to monitor the proliferation of parasites, three independent experiments were performed for each concentration of the compounds evaluated. The in vitro evaluations of compounds toxicity by MTT in VERO and BMDM cells follow a methodology described above with some modifications. The selectivity index was calculated with SI = CC50/EC50, where CC50 was the maximum concentration range of compounds 10, 21–23 used to evaluate cytotoxicity in VERO and BMDM cells. The trypanocidal activity of compounds 8–23 was evaluated on the viability of T. cruzi epimastigotes through a colorimetric method adapted with minor modifications. 2 × 10^6 parasites/mL were seeded in a 96-well plate, adding 50 μM of each derivative dissolved in DMSO (final concentration remained below 1%). The plate was incubated for 96 h at 29 °C. Then, 1 μg/mL of 3-(4,5-dimethylthiazol-2-yl)-2,5-diphenyl tetrazolium bromide (MTT) was added and incubated in darkness for 4 h. After this time, acidic isopropanol (4N) was added and the plate was read at 570 nm in a spectrophotometer Synergy HT (Biotek). Benznidazole was used as a reference drug. The in vitro evaluations of compounds toxicity by MTT in VERO and BMDM cells follow a methodology described above with some modifications. Cells were counted in suspension and seeded at 20 × 10^3 cells/well. The test was carried out in triplicate on 96-well microplates in different concentrations: 50 μM, 100 μM, 200 μM and 300 μM, untreated cells and reference drug (benznidazole) controls.

CEM-DNR = experiment: MTS antiproliferative assay CEM-DNR; format: cell-based; settings: Homo sapiens, 72 h of incubation, daunorubicin-resistant
Excerpt: (§1) The cell lines used were acquired from the American Type Culture Collection (ATCC), CCRF-CEM (T lymphoblastic leukemia), K562 ([…]), U2OS (osteosarcoma), HCT116 (colon carcinoma), A549 (lung adenocarcinoma) and HCT116p53−/− (HCT116 cell line mutated in p53) Horizon Discovery Ltd., (Waterbeach, Cambridge, United Kingdom).
(§2) In our laboratory, IMTM, we generated the daunorubicin-resistant subline of CCRF-CEM cells (CEM-DNR bulk) and paclitaxel-resistant subline K562-TAX, as described previously. […] Both ABC transporters are involved in drug resistance. As a control, human fibroblasts MRC-5 and BJ cell lines were used. […] Adherent cells were passaged using PBS containing 0.25% trypsin plus 0.01% EDTA (ethylenediamine tetraacetic acid) every 2–3 days.
(§3) The antiproliferative activity of compounds was determined using a standard 3-(4,5-dimethylthiazol-2yl)-5-(3-carboxymethoxyphenyl)-2-(4-sulfophenyl)-2H-tetrazolium (MTS) reduction assay on a robotic high throughput screening platform (HighResBio, Boston, MA, USA) following treatment of cells for 3–7 days. The IC50 values were calculated from the appropriate dose–response curves with Dotmatics software (San Diego, CA, USA).

K562 = experiment: MTS antiproliferative assay K562; format: cell-based, human; settings: for IC50: 72 h of incubation
Excerpt: as §1, §2, §3

A549 = experiment: MTS antiproliferative assay A549; format: cell-based, human; settings: 72 h of incubation
Excerpt: as §1, §2, §3

HCT-116 = experiment: MTS antiproliferative assay HCT116; format: cell-based; settings: Homo sapiens, 72 h of incubation
Excerpt: as §1, §2, §3

HCT116p53−/− = experiment: MTS antiproliferative assay HCT116p53-/-; format: cell-based; settings: Homo sapiens; 72 h of incubation
Excerpt: as §1, §2, §3

U2OS = experiment: MTS antiproliferative assay U2OS; format: cell-based; settings: Homo sapiens, 72 h of incubation
Excerpt: as §1, §2, §3

BJ = experiment: MTS assay on non-malignant BJ; format: cell-based; settings: noncancerous human cell line
Procedure: as §2, §3

A549 cell line = experiment: Annexin V-FITC/PI flow cytometry apoptosis assay A549; format: cell-based, human; settings: 24 h
Procedure: Cell death was assessed after 24 h incubation with compounds 18 and 22. Apoptosis was analyzed by flow cytometry using annexin V-FITC and propidium iodide (PI). Early apoptosis was defined by annexin V-FITC expression and, necrosis by PI expression, late apoptosis by coexpression of annexin V/PI. Doxorubicin and quercetin were used as positive controls. The results of a typical flow cytometry analysis of both compounds are illustrated in Figure 2 and Figure 3. An increase in early apoptosis and late apoptosis was observed; necrosis was less predominant. The results are summarized in Tables S1 and S2 (Supplementary Materials). The expression of annexin V was different depending on the compound used. K562, A549 cell lines were treated as described by the manufacturer (Santa Cruz Biotechnology), washed, and resuspended in annexin V binding buffer (0.01 M HEPES, 0.14 M NaCl, and 2.5 mM CaCl2) with the subsequent incubation of annexinV-FITC and then PI. An Epics XL cytometer (Beckman Coulter, Indianapolis, IN, USA) was used for the analysis. Untreated cells were the negative controls, and doxorubicin (Dox) (1 μM), and quercetin (QC) (50 μM) were the positive controls. Early apoptosis refers to annexin V expression, late apoptosis, the coexpression of annexin V and PI, and necrosis the sole expression of PI. […] The experiments were performed as described before. To avoid the unwanted effects of DMSO, the concentrations of the compounds were never higher than 100 μM.

- EC50 ([2]; Trypanosoma cruzi, 72 h, epimastigotes): 5.03 ± 0.49 µM
- IC50 (K562): 3.91 ± 0.14 µM
- IC50 (K562; Homo sapiens, K562, 72 h): 3.91 to 4.33 µM
- IC50 (A549): 9.74 ± 1.28 µM
- IC50 (A549; Homo sapiens, A549, 72 h): 9.64 to 9.74 µM
- IC50 (HCT-116): 13 ± 3.61 µM
- IC50 (HCT116p53−/−): 33.9 ± 5.63 µM
- IC50 (U2OS): 8.1 ± 1.71 µM
SMILES: COc1ccc2c(c1)CC/C(=C\c1cccnc1Oc1ccc(Cl)cc1)C2=O [Compound 22, (E)-2-{[2-(4-Chlorophenoxy)pyridin-3-yl]methylene}-3,4-dihydro-6-methoxynaphthalen-1(2H)-one]
- EC50 ([1]; 72 h, promastigotes): 12.4 ± 1.15 µM
- SIB/Lb selectivity index on L. braziliensis/BMDM ([1]; SI = CC50/EC50): 38
- SIV/Tc selectivity index on T. cruzi/VERO ([2]; SI = CC50/EC50): 20
- selectivity index T. cruzi vs BMDM (CC50/EC50) ([2]; SI = CC50/EC50): 93
- EC50 (BMDM macrophages): 468 µM
- IC50 (CEM-DNR): 22.5 ± 4.77 µM
- times higher cytotoxicity against K562 than K562-TAX (K562; ratio of IC50 values): 5.5 times
- IC50 (BJ): > 50 µM
- AV+/IP+ (late apoptosis) (A549 cell line; A549, 10 µM): 23.30%
- AV+/IP- (early apoptosis) (A549 cell line; A549, 10 µM): 13.80%
- AV-/IP+ (necrosis) (A549 cell line; A549, 10 µM): 8.44%
- AV+/IP+ (late apoptosis) (A549 cell line; A549, 25 µM): 78.30%
- AV+/IP- (early apoptosis) (A549 cell line; A549, 25 µM): 9.36%
- AV-/IP+ (necrosis) (A549 cell line; A549, 25 µM): 9.32%
